Earlier results as cited in article PMC12443862, “The second life of Citrus bergamia: bioavailability analysis of a new formulation using waste-based microencapsulation as a valuable source of bioactive compounds” (Pharmacological Reports, 2025).

Parameters: method as in PMID 25200135
Conditions: hesperidin micronization (5.1 μm)

COc1ccc([C@@H]2CC(=O)c3c(O)cc(O[C@@H]4O[C@H](CO[C@@H]5O[C@@H](C)[C@H](O)[C@@H](O)[C@H]5O)[C@@H](O)[C@H](O)[C@H]4O)cc3O2)cc1O [hesperidin]
Increase of flavanone's bioavailability compared to conventional hesperidin (32.8 μm): 2 fold
